Experimental data: patent publication US7163950B1, “Surfactants as malarial chloroguine resistance reversal agents” (priority 2000, dated 2007)
Where two headings read alike, the source gives them in different places.

Assays:
P. falciparum [1] = conditions: read-out: chloroquine IC50, control (no NPE added); control without NPE, used to calculate the degree of chloroquine resistance
Protocol: (§1) NPE solutions with increasing average EO content were tested for anti-P. falciparum activity and the IC50S ? of these materials were determined using a non-linear regression analysis.
(§2) P. falciparum cultures were grown in A+ blood obtained by venipuncture of volunteers. Cultures of the laboratory lines ItG and 3D7 [Dolan, 1993] and the patient isolates were maintained by the method of Trager and Jensen [Trager, 1976] using RPMI 1640 supplemented with 10% human serum and 50 μM hypoxanthine. […] In vitro drug susceptibility testing was performed using the WHO In Vitro Micro Test (Mark III) [1997]. The IC50 values were determined using a non-linear regression analysis of the dose-response curve.

P. falciparum [2] = test: microbe, parasite or virus in culture; conditions: Plasmodium falciparum, read-out: chloroquine IC50, control (no NPE added), control without NPE, used to calculate the degree of chloroquine resistance
Protocol: as §1, §2

CCN(CC)CCCC(C)Nc1ccnc2cc(Cl)ccc12 (centres unmarked) [chloroquine]
IC50 (P. falciparum [1]): 274 ± 56 nM | IC50 (P. falciparum [2]): 240 ± 60 nM
